System: barnyardgrass
Test: Test Example 2: soil surface treatment, upland pot test
Format: in vivo, Echinochloa crus-galli L.
Details: active ingredient 500 g/ha, observed 20th to 28th day
Procedure, shortened: (§1)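 Upland soil in pots of 1/170,000 ha is sown; on day 1 after sowing the formulated compound (wettable powder or emulsifiable concentrate, predetermined a.i. amount, water volume 1,500 L/ha) is applied to the soil surface with a small sprayer. Percent control is judged by eye 20–28 days later.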

Row | SMILES | Growth controlling degree (%) Barnyardgrass
1 | Cc1cc(Cl)ccc1OCC(=O)N(C)C(c1cnccc1C(F)(F)F)C(C)C (stereo not drawn) [I-234] | 95%

Same assay, conditions: active ingredient 500 g/ha, observed day 21, 0 = non-treated, 100 = complete kill

Row | SMILES | Growth controlling degree (%) Barnyardgrass
2 | CC(C)C(c1cnccc1C(F)(F)F)N(C)C(=O)CSc1ccccc1 (stereo not drawn) [I-256] | 70%
3 | CC(C)C(c1cnccc1C(F)(F)F)N(C)C(=O)COc1ccc(F)cc1F (stereo not drawn) [Compound I-246] | 98%

System: crabgrass
Test: as above
Format: in vivo, Digitaria sanguinalis L.
Details: active ingredient 500 g/ha, observed 20th to 28th day
Procedure, shortened: as §1

Row | SMILES | Growth controlling degree (%) Crabgrass
4 | Cc1cc(Cl)ccc1OCC(=O)N(C)C(c1cnccc1C(F)(F)F)C(C)C (stereo not drawn) [I-234] | 98%

Same assay, conditions: active ingredient 500 g/ha, observed day 21, 0 = non-treated, 100 = complete kill

Row | SMILES | Growth controlling degree (%) Crabgrass
5 | CC(C)C(c1cnccc1C(F)(F)F)N(C)C(=O)CSc1ccccc1 (stereo not drawn) [I-256] | 98%
6 | CC(C)C(c1cnccc1C(F)(F)F)N(C)C(=O)COc1ccc(F)cc1F (stereo not drawn) [Compound I-246] | 95%

System: green foxtail
Test: as above
Format: in vivo, Setaria viridis L.
Details: active ingredient 500 g/ha, observed 20th to 28th day
Procedure, shortened: as §1

Row | SMILES | Growth controlling degree (%) Green foxtail
7 | Cc1cc(Cl)ccc1OCC(=O)N(C)C(c1cnccc1C(F)(F)F)C(C)C (stereo not drawn) [I-234] | 70%

Same assay, conditions: active ingredient 500 g/ha, observed day 21, 0 = non-treated, 100 = complete kill

Row | SMILES | Growth controlling degree (%) Green foxtail
8 | CC(C)C(c1cnccc1C(F)(F)F)N(C)C(=O)CSc1ccccc1 (stereo not drawn) [I-256] | 100%
9 | CC(C)C(c1cnccc1C(F)(F)F)N(C)C(=O)COc1ccc(F)cc1F (stereo not drawn) [Compound I-246] | 98%

System: redroot pigweed
Test: as above
Format: in vivo, Amaranthus retroflexus L.
Details: active ingredient 500 g/ha, observed 20th to 28th day
Procedure, shortened: as §1

Row | SMILES | Growth controlling degree (%) Redroot pigweed
10 | Cc1cc(Cl)ccc1OCC(=O)N(C)C(c1cnccc1C(F)(F)F)C(C)C (stereo not drawn) [I-234] | 70%

Same assay, conditions: active ingredient 500 g/ha, observed day 21, 0 = non-treated, 100 = complete kill

Row | SMILES | Growth controlling degree (%) Redroot pigweed
11 | CC(C)C(c1cnccc1C(F)(F)F)N(C)C(=O)CSc1ccccc1 (stereo not drawn) [I-256] | 80%
12 | CC(C)C(c1cnccc1C(F)(F)F)N(C)C(=O)COc1ccc(F)cc1F (stereo not drawn) [Compound I-246] | 50%

System: prickly sida
Test: as above
Format: in vivo, Sida spinosa L.
Details: active ingredient 500 g/ha, observed 20th to 28th day
Procedure, shortened: as §1

Row | SMILES | Growth controlling degree (%) Prickly sida
13 | Cc1cc(Cl)ccc1OCC(=O)N(C)C(c1cnccc1C(F)(F)F)C(C)C (stereo not drawn) [I-234] | 50%

Same assay, conditions: active ingredient 500 g/ha, observed day 21, 0 = non-treated, 100 = complete kill

Row | SMILES | Growth controlling degree (%) Prickly sida
14 | CC(C)C(c1cnccc1C(F)(F)F)N(C)C(=O)CSc1ccccc1 (stereo not drawn) [I-256] | 10%
15 | CC(C)C(c1cnccc1C(F)(F)F)N(C)C(=O)COc1ccc(F)cc1F (stereo not drawn) [Compound I-246] | 80%

System: velvetleaf
Test: as above
Format: in vivo, Abutilon theophrasti MEDIC.
Details: active ingredient 500 g/ha, observed 20th to 28th day
Procedure, shortened: as §1

Row | SMILES | Growth controlling degree (%) Velvetleaf
16 | Cc1cc(Cl)ccc1OCC(=O)N(C)C(c1cnccc1C(F)(F)F)C(C)C (stereo not drawn) [I-234] | 30%

Same assay, conditions: active ingredient 500 g/ha, observed day 21, 0 = non-treated, 100 = complete kill

Row | SMILES | Growth controlling degree (%) Velvetleaf
17 | CC(C)C(c1cnccc1C(F)(F)F)N(C)C(=O)CSc1ccccc1 (stereo not drawn) [I-256] | 0%
18 | CC(C)C(c1cnccc1C(F)(F)F)N(C)C(=O)COc1ccc(F)cc1F (stereo not drawn) [Compound I-246] | 30%

System: rice
Test: as above
Format: in vivo, Oryza sativa L.
Details: active ingredient 500 g/ha, observed 20th to 28th day
Procedure, shortened: as §1

Row | SMILES | Growth controlling degree (%) Rice
19 | Cc1cc(Cl)ccc1OCC(=O)N(C)C(c1cnccc1C(F)(F)F)C(C)C (stereo not drawn) [I-234] | 10%

Same assay, conditions: active ingredient 500 g/ha, observed day 21, 0 = non-treated, 100 = complete kill

Row | SMILES | Growth controlling degree (%) Rice
20 | CC(C)C(c1cnccc1C(F)(F)F)N(C)C(=O)CSc1ccccc1 (stereo not drawn) [I-256] | 0%
21 | CC(C)C(c1cnccc1C(F)(F)F)N(C)C(=O)COc1ccc(F)cc1F (stereo not drawn) [Compound I-246] | 20%

System: corn
Test: as above
Format: in vivo, Zea mays L.
Details: active ingredient 500 g/ha, observed 20th to 28th day
Procedure, shortened: as §1

Row | SMILES | Growth controlling degree (%) Corn
22 | Cc1cc(Cl)ccc1OCC(=O)N(C)C(c1cnccc1C(F)(F)F)C(C)C (stereo not drawn) [I-234] | 0%

Same assay, conditions: active ingredient 500 g/ha, observed day 21, 0 = non-treated, 100 = complete kill

Row | SMILES | Growth controlling degree (%) Corn
23 | CC(C)C(c1cnccc1C(F)(F)F)N(C)C(=O)CSc1ccccc1 (stereo not drawn) [I-256] | 10%
24 | CC(C)C(c1cnccc1C(F)(F)F)N(C)C(=O)COc1ccc(F)cc1F (stereo not drawn) [Compound I-246] | 40%

System: soybean
Test: as above
Format: in vivo, Glycine max Merr.
Details: active ingredient 500 g/ha, observed 20th to 28th day
Procedure, shortened: as §1

Row | SMILES | Growth controlling degree (%) Soyabean
25 | Cc1cc(Cl)ccc1OCC(=O)N(C)C(c1cnccc1C(F)(F)F)C(C)C (stereo not drawn) [I-234] | 0%

Same assay, conditions: active ingredient 500 g/ha, observed day 21, 0 = non-treated, 100 = complete kill

Row | SMILES | Growth controlling degree (%) Soyabean
26 | CC(C)C(c1cnccc1C(F)(F)F)N(C)C(=O)CSc1ccccc1 (stereo not drawn) [I-256] | 0%
27 | CC(C)C(c1cnccc1C(F)(F)F)N(C)C(=O)COc1ccc(F)cc1F (stereo not drawn) [Compound I-246] | 40%

System: barnyardgrass
Test: Test Example 3: paddy pot test, application under submerged conditions
Format: in vivo, Echinochloa crus-galli L.
Details: active ingredient 250 g/ha; submerged application at 0.5 leaf stage; visually observed 14 days after application; 0 = non-treated, 100 = complete kill
Procedure, shortened: (§2)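 Visual growth-control rating (0 = untreated, 100 = complete kill) 14 days after treatment. The formulated compound, as a diluted wettable powder or emulsifiable concentrate, went into 3–4 cm flood water at a predetermined active-ingredient dose once the weeds reached 0.5 leaf stage (wapato: primary leaf stage).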

Row | SMILES | Growth controlling degree (%) Barnyardgrass
28 | CC(C)C(c1cnccc1C(F)(F)F)N(C)C(=O)CSc1ccccc1 (stereo not drawn) [I-256] | 100%
29 | CC(C)C(c1cnccc1C(F)(F)F)N(C)C(=O)COc1ccc(F)cc1F (stereo not drawn) [Compound I-246] | 100%
30 | Cc1cc(Cl)ccc1OCC(=O)N(C)C(c1cnccc1C(F)(F)F)C(C)C (stereo not drawn) [I-234] | 100%

System: japanese bulrush
Test: as above
Format: in vivo, Scirpus juncoides
Details: active ingredient 250 g/ha; submerged application at 0.5 leaf stage; visually observed 14 days after application; 0 = non-treated, 100 = complete kill
Procedure, shortened: as §2

Row | SMILES | Growth controlling degree (%) Japanese bulrush
31 | CC(C)C(c1cnccc1C(F)(F)F)N(C)C(=O)CSc1ccccc1 (stereo not drawn) [I-256] | 90%
32 | CC(C)C(c1cnccc1C(F)(F)F)N(C)C(=O)COc1ccc(F)cc1F (stereo not drawn) [Compound I-246] | 98%
33 | Cc1cc(Cl)ccc1OCC(=O)N(C)C(c1cnccc1C(F)(F)F)C(C)C (stereo not drawn) [I-234] | 90%

System: japanese ribbon wapato
Test: as above
Format: in vivo, Sagittaria pygniaea
Details: active ingredient 250 g/ha; submerged application at primary leaf stage; visually observed 14 days after application; 0 = non-treated, 100 = complete kill
Procedure, shortened: as §2

Row | SMILES | Growth controlling degree (%) Japanese ribbon wapato
34 | CC(C)C(c1cnccc1C(F)(F)F)N(C)C(=O)CSc1ccccc1 (stereo not drawn) [I-256] | 20%
35 | CC(C)C(c1cnccc1C(F)(F)F)N(C)C(=O)COc1ccc(F)cc1F (stereo not drawn) [Compound I-246] | 70%
36 | Cc1cc(Cl)ccc1OCC(=O)N(C)C(c1cnccc1C(F)(F)F)C(C)C (stereo not drawn) [I-234] | 40%

System: rice (var. Nihonbare)
Test: Test Example 3: paddy pot test, transplanted rice
Format: in vivo, Oryza sativa L.
Details: active ingredient 250 g/ha, applied 4th day after transplantation, visually observed 21st day after application, 0 = non-treated, 100 = complete kill
Procedure, shortened: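 Rice (var. Nihonbare) at 2 leaf stage transplanted 3 cm deep into puddled paddy soil under 3–4 cm flooding; on day 4 after transplanting, diluted wettable powder or emulsifiable concentrate applied by pipette under submerged conditions at a set active-ingredient dose. Growth scored visually 21 days after application, 0 (untreated) to 100 (complete kill) %.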

Row | SMILES | Growth controlling degree (%) Rice
37 | CC(C)C(c1cnccc1C(F)(F)F)N(C)C(=O)CSc1ccccc1 (stereo not drawn) [I-256] | 0%
38 | CC(C)C(c1cnccc1C(F)(F)F)N(C)C(=O)COc1ccc(F)cc1F (stereo not drawn) [Compound I-246] | 10%
39 | Cc1cc(Cl)ccc1OCC(=O)N(C)C(c1cnccc1C(F)(F)F)C(C)C (stereo not drawn) [I-234] | 0%
